Where a name gives a salt, the structure may show the parent alone.
What was measured:
CDK2/cyclin A = target: T1, CDK2/cyclin A (Homo sapiens, UniProt P24941); test: Inhibition of CDK2/cyclin A retinoblastoma kinase activity (Ki; % inhibition); assay type: biochemical; settings: for Ki: apparent Ki, CDK2/cyclin A, Rb substrate
T1 construct: made in house; host or cells: CDK2: insect cells (baculovirus); cyclin A: E. coli
Procedure, shortened: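 Apparent Ki values came from fitting concentration-dependent activity data to competitive (or competitive tight-binding) models, and % inhibition from single 30 nM screens of library compounds. Activity was measured as ³²P/³³P incorporation from 25 μM ATP into an Rb substrate by 10 or 19 nM CDK2/delta cyclin A at 30 °C over 60–75 min, pH 7.4.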

human CDK4/cyclin D3 = target: T2, human CDK4/cyclin D3 (Homo sapiens, UniProt P11802); test: Inhibition of CDK4/cyclin D retinoblastoma kinase activity (Ki; % inhibition); assay type: biochemical; settings: for Ki: apparent Ki, CDK4/cyclin D3, Rb substrate
T2 construct: made in house; host or cells: insect cells co-infected with baculovirus vectors
T2 sequence (P11802 whole entry): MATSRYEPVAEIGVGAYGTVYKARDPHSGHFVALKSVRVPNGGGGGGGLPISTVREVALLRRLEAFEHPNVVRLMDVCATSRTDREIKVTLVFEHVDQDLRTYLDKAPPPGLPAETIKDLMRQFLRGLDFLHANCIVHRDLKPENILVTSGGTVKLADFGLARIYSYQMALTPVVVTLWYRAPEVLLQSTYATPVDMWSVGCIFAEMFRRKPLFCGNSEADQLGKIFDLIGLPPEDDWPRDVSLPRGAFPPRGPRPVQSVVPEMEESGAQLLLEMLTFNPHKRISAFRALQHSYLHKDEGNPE
T2 sequence (P30281 1-264 partner limits assumed): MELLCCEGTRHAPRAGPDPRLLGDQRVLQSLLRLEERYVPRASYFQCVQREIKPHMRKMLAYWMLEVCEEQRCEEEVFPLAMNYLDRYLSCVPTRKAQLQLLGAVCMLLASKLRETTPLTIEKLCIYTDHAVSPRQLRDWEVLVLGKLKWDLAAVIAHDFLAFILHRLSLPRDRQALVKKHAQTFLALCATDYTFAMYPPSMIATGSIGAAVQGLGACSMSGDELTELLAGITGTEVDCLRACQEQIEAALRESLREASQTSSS
Procedure, shortened: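 Radiometric filter-binding read-out: Rb residues 386-928 phosphorylated by 5 nM CDK4/cyclin D3(1-264) from baculovirus-infected insect cells, 25 μM ATP, HEPES pH 7.4, 30 °C. Run 20 min, or 60 min for tight-binding inhibitors. Screening at 30 nM theoretical compound; apparent Ki by competitive-inhibition fitting.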

HCT-116 cell line = test: Inhibition of cell growth, MTT tetrazolium salt assay; assay type: cell-based; settings: for IC50: Homo sapiens, HCT-116, 120 h, MTT, three to five days
Procedure, shortened: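 Cells in McCoy's 5A medium were given 4 h before compound addition in 0.5% (v/v) DMSO, then incubated 3–5 days at 37 °C, 5% CO2. After 4 h with 0.2 mg/mL MTT, DMSO-solubilized formazan was read at 540 nm; 50% and 90% growth-inhibitory concentrations came from semi-log plots against vehicle controls.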

[1] = HCT-116 cells, 0.25 μM compound

Compound | CDK2 % Inhibition at 0.03 μM (CDK2/cyclin A; at 0.03 μM) [%] | CDK4 % Inhibition at 0.03 μM (human CDK4/cyclin D3; at 0.03 μM) [%] | HCT-116 % Inhibition at 0.25 μM (HCT-116 cell line; HCT-116, at 0.25 μM) [%] | CDK2 % Inhibition at 0.03 μM (CDK2/cyclin A; 0.03 μM compound) [%] | CDK4 % Inhibition at 0.03 μM (human CDK4/cyclin D3; 0.03 μM compound) [%] | HCT-116 % Inhibition at 0.1 μM (HCT-116 cell line; HCT-116 cells, 0.1 μM compound) [%] | HCT-116 % Inhibition at 0.25 μM (HCT-116 cell line; [1]) [%] | also measured
CCC(C)NC(=O)c1ccc(Nc2nc(N)c(C(=O)c3c(F)cccc3F)s2)cc1 (stereo not shown) [Example G148] | 5 | 14 | 48 | – | – | – | – | HCT-116 % Inhibition at 0.1 μM (HCT-116 cell line; HCT-116, at 0.1 μM): 0%
CNC(C)(C)CNC(=O)c1ccc(Nc2nc(N)c(C(=O)c3c(F)cccc3F)s2)cc1 [Example A18, 4-{4-Amino-5-[1-(2,6-difluoro-phenyl)-methanoyl]-thiazol-2-ylamino}-N-(2-methyl-2-methylamino-propyl)-benzamide Acetic Acid Salt] | – | – | – | – | – | – | – | Ki (CDK2/cyclin A): 190 nM; Ki (human CDK4/cyclin D3): 6 nM; IC50 (HCT-116 cell line): 920 nM
CN1CCC[C@@H]1CNC(=O)c1ccc(Nc2nc(N)c(C(=O)c3c(F)cccc3F)s2)cc1 [Example A34, 4-[4-Amino-5-(2,6-difluoro-benzoyl)-thiazol-2-ylamino]-N-(1-methyl-pyrrolidin-2R-ylmethyl)-benzamide] | – | – | – | – | – | – | – | Ki (CDK2/cyclin A): 99 nM; Ki (human CDK4/cyclin D3): 10 nM; IC50 (HCT-116 cell line): 140 nM
Nc1nc(Nc2ccc(C(=O)NCCCn3ccnc3)cc2)sc1C(=O)c1c(F)cccc1F [Example G143] | 2 | 27 | 65 | – | – | – | – | HCT-116 % Inhibition at 0.1 μM (HCT-116 cell line; HCT-116, at 0.1 μM): 0%
C[C@@H]1CCC[C@H](C)N1CCNC(=O)c1ccc(Nc2nc(N)c(C(=O)c3c(F)cccc3F)s2)cc1 [Example A51] | – | – | – | – | – | – | – | Ki (CDK2/cyclin A): 110 nM; Ki (human CDK4/cyclin D3): 7 nM; IC50 (HCT-116 cell line): 90 nM
Nc1nc(Nc2ccc(C(=O)N3CCN(CCc4cccs4)CC3)cc2)sc1C(=O)c1c(F)cccc1F [Example G395] | – | – | – | 17 | 15 | 19 | 48 | –
COc1ccc(N2CCN(C(=O)c3ccc(Nc4nc(N)c(C(=O)c5c(F)cccc5F)s4)cc3)CC2)cc1 [Example G240] | – | – | – | 11 | 27 | 15 | 52 | –
Nc1nc(Nc2ccc(C(=O)Nc3ccc(O)c(Cl)c3)cc2)sc1C(=O)c1c(F)cccc1F [Example G394] | – | – | – | 35 | 11 | 14 | 73 | –
C=CCN1CCN(C(=O)c2ccc(Nc3nc(N)c(C(=O)c4c(F)cccc4F)s3)cc2)CC1 [Example G21] | 3 | 14 | 46 | – | – | – | – | –
COc1ccc(CCNC(=O)c2ccc(Nc3nc(N)c(C(=O)c4c(F)cccc4F)s3)cc2)cc1 [Example G238] | – | – | – | 18 | 26 | 22 | 58 | –
Nc1nc(Nc2ccc(C(=O)NCCSCCO)cc2)sc1C(=O)c1c(F)cccc1F [Example G366] | – | – | – | 1 | 8 | 26 | 55 | –
CCCCOc1ccc(NC(=O)c2ccc(Nc3nc(N)c(C(=O)c4c(F)cccc4F)s3)cc2)cc1 [Example G205] | – | – | – | 1 | 7 | 12 | 52 | –
Cc1cc(NC(=O)c2ccc(Nc3nc(N)c(C(=O)c4c(F)cccc4F)s3)cc2)no1 [Example G393] | – | – | – | 8 | 0 | 8 | 46 | –
Nc1nc(Nc2ccc(C(=O)NCCCc3ccccc3)cc2)sc1C(=O)c1c(F)cccc1F [Example G325] | – | – | – | 13 | 23 | 6 | 51 | –
COc1cccc(CNC(=O)c2ccc(Nc3nc(N)c(C(=O)c4c(F)cccc4F)s3)cc2)c1OC [Example G332] | – | – | – | 17 | 14 | 21 | 66 | –
CCOC(=O)Cc1ccc(NC(=O)c2ccc(Nc3nc(N)c(C(=O)c4c(F)cccc4F)s3)cc2)cc1 [Example G130] | 1 | 11 | 77 | – | – | – | – | HCT-116 % Inhibition at 0.1 μM (HCT-116 cell line; HCT-116, at 0.1 μM): 0%
CC(C)OCCNC(=O)c1ccc(Nc2nc(N)c(C(=O)c3c(F)cccc3F)s2)cc1 [Example A7, 4-[4-Amino-5-(2,6-difluoro-benzoyl)-thiazol-2-ylamino]-N-(2-isopropoxy-ethyl)-benzamide] | – | – | – | – | – | – | – | Ki (CDK2/cyclin A): 61 nM; Ki (human CDK4/cyclin D3): 26 nM; IC50 (HCT-116 cell line): 410 nM
CCC(NC(=O)c1ccc(Nc2nc(N)c(C(=O)c3c(F)cccc3F)s2)cc1)c1ccccc1 (stereo not shown) [Example G151] | 16 | 7 | 94 | – | – | – | – | HCT-116 % Inhibition at 0.1 μM (HCT-116 cell line; HCT-116, at 0.1 μM): 27%
CCOC(CCCNC(=O)c1ccc(Nc2nc(N)c(C(=O)c3c(F)cccc3F)s2)cc1)OCC [Example G392] | – | – | – | 12 | −2 | 8 | 49 | –
Nc1nc(Nc2ccc(C(=O)N3CCCC(O)C3)cc2)sc1C(=O)c1c(F)cccc1F (stereo not shown) [Example G49] | 7 | 4 | 57 | – | – | – | – | –
Nc1nc(Nc2ccc(C(=O)N3CCC(O)(c4ccccc4)CC3)cc2)sc1C(=O)c1c(F)cccc1F [Example G202] | – | – | – | 5 | 25 | 20 | 48 | –
Nc1nc(Nc2ccc(C(=O)NCC3CCCCC3)cc2)sc1C(=O)c1c(F)cccc1F [Example G173] | 14 | 21 | 54 | – | – | – | – | HCT-116 % Inhibition at 0.1 μM (HCT-116 cell line; HCT-116, at 0.1 μM): 18%
CCOC(=O)CC(C)NC(=O)c1ccc(Nc2nc(N)c(C(=O)c3c(F)cccc3F)s2)cc1 (stereo not shown) [Example G117] | 4 | 13 | 55 | – | – | – | – | HCT-116 % Inhibition at 0.1 μM (HCT-116 cell line; HCT-116, at 0.1 μM): 6%
CN(C)CCCCNC(=O)c1ccc(Nc2nc(N)c(C(=O)c3c(F)cccc3F)s2)cc1 [Example G93] | −4 | 11 | 58 | – | – | – | – | HCT-116 % Inhibition at 0.1 μM (HCT-116 cell line; HCT-116, at 0.1 μM): 26%
Nc1nc(Nc2ccc(C(=O)NC3CCSC3=O)cc2)sc1C(=O)c1c(F)cccc1F (stereo not shown) [Example G121] | 13 | 20 | 55 | – | – | – | – | HCT-116 % Inhibition at 0.1 μM (HCT-116 cell line; HCT-116, at 0.1 μM): 0%
CN(C)CCCN(C)C(=O)c1ccc(Nc2nc(N)c(C(=O)c3c(F)cccc3F)s2)cc1 [Example G64] | 5 | 17 | 57 | – | – | – | – | –
Nc1nc(Nc2ccc(C(=O)N3CCN(Cc4ccc5c(c4)OCO5)CC3)cc2)sc1C(=O)c1c(F)cccc1F [Example G62] | 7 | 22 | 50 | – | – | – | – | –
Nc1nc(Nc2ccc(C(=O)Nc3ccc4c(c3)OCO4)cc2)sc1C(=O)c1c(F)cccc1F [Example G52] | 10 | 5 | 65 | – | – | – | – | –
CN(CC1OCCO1)C(=O)c1ccc(Nc2nc(N)c(C(=O)c3c(F)cccc3F)s2)cc1 [Example G42] | 10 | 7 | 54 | – | – | – | – | –

— US6720346B2, “Thiazole benzamide derivatives and pharmaceutical compositions for inhibiting cell proliferation” (Agouron Pharmaceuticals, Inc., priority 2001, dated 2004)
